Source: PubChem BioAssay (NCI)
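Each compound was tested at five concentrations against cells in 96-well plates for 48 hours. GI50 = concentration required for 50% inhibition of growth. TGI is the concentration that stops growth completely.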

How the values were obtained:
Experiment in all cases: NCI anticancer screen, dose series, 48 h
RXF 393 renal = tested on: RXF 393 renal
MOLT-4 leukemia = tested on: MOLT-4 leukemia
U251 CNS = tested on: U251 CNS
TK-10 renal = tested on: TK-10 renal
SK-MEL-28 melanoma = tested on: SK-MEL-28 melanoma
SW-620 colon = tested on: SW-620 colon
MDA-MB-231 breast = tested on: MDA-MB-231 breast
NCI-H23 lung = tested on: NCI-H23 lung
NCI-H522 lung = tested on: NCI-H522 lung
MALME-3M melanoma = tested on: MALME-3M melanoma
CCRF-CEM leukemia = tested on: CCRF-CEM leukemia
SF-539 CNS = tested on: SF-539 CNS
IGROV1 ovarian = tested on: IGROV1 ovarian
SNB-19 CNS = tested on: SNB-19 CNS
HOP-62 NSCLC = tested on: HOP-62 NSCLC
NCI/ADR-RES ovarian = tested on: NCI/ADR-RES ovarian
PC-3 prostate = tested on: PC-3 prostate
LOX IMVI melanoma = tested on: LOX IMVI melanoma
HOP-92 NSCLC = tested on: HOP-92 NSCLC
HS 578T breast = tested on: HS 578T breast
EKVX NSCLC = tested on: EKVX NSCLC
HT29 colon = tested on: HT29 colon
SNB-75 CNS = tested on: SNB-75 CNS
SN12C renal = tested on: SN12C renal
M14 melanoma = tested on: M14 melanoma
K-562 leukemia = tested on: K-562 leukemia
ACHN renal = tested on: ACHN renal
HCC-2998 colon = tested on: HCC-2998 colon
A549 NSCLC = tested on: A549 NSCLC
CAKI-1 renal = tested on: CAKI-1 renal
NCI-H460 lung = tested on: NCI-H460 lung
DU-145 prostate = tested on: DU-145 prostate
NCI-H226 lung = tested on: NCI-H226 lung
UACC-257 melanoma = tested on: UACC-257 melanoma
SK-MEL-2 melanoma = tested on: SK-MEL-2 melanoma
HCT-15 colon = tested on: HCT-15 colon
SF-295 CNS = tested on: SF-295 CNS
UO-31 renal = tested on: UO-31 renal
OVCAR-3 ovarian = tested on: OVCAR-3 ovarian
HCT-116 colon = tested on: HCT-116 colon
A498 renal = tested on: A498 renal
SK-MEL-5 melanoma = tested on: SK-MEL-5 melanoma
BT-549 breast = tested on: BT-549 breast
RPMI-8226 leukemia = tested on: RPMI-8226 leukemia
T-47D breast = tested on: T-47D breast
SK-OV-3 ovarian = tested on: SK-OV-3 ovarian
UACC-62 melanoma = tested on: UACC-62 melanoma
OVCAR-8 ovarian = tested on: OVCAR-8 ovarian
KM12 colon = tested on: KM12 colon
786-0 renal = tested on: 786-0 renal
OVCAR-5 ovarian = tested on: OVCAR-5 ovarian
MCF7 breast = tested on: MCF7 breast
MDA-MB-435 = tested on: MDA-MB-435
OVCAR-4 ovarian = tested on: OVCAR-4 ovarian
HL-60(TB) leukemia = tested on: HL-60(TB) leukemia
COLO 205 colon = tested on: COLO 205 colon
SF-268 CNS = tested on: SF-268 CNS
SR leukemia = tested on: SR leukemia

## CCCCCCCC/C=C/CCCCCCCC1=NC(C)(C)CN1CCO
RXF 393 renal
  GI50: 2.02 µM
  TGI: 4.37 µM
MOLT-4 leukemia
  GI50: 1.44 µM
  TGI: 4.9 µM
U251 CNS
  GI50: 1.62 µM
  TGI: 2.97 µM
TK-10 renal
  GI50: 1.91 µM
  TGI: 3.94 µM
SK-MEL-28 melanoma
  GI50: 1.89 µM
  TGI: 3.39 µM
SW-620 colon
  GI50: 1.73 µM
  TGI: 3.37 µM
MDA-MB-231 breast
  GI50: 1.72 µM
  TGI: 3.69 µM
NCI-H23 lung
  GI50: 1.84 µM
  TGI: 3.7 µM
NCI-H522 lung
  GI50: 1.81 µM
  TGI: 3.58 µM
MALME-3M melanoma
  GI50: 1.85 µM
  TGI: 3.88 µM
CCRF-CEM leukemia
  GI50: 2.22 µM
  TGI: 6.75 µM
SF-539 CNS
  GI50: 1.68 µM
  TGI: 3.07 µM
IGROV1 ovarian
  GI50: 1.51 µM
  TGI: 2.9 µM
SNB-19 CNS
  GI50: 6.26 µM
  TGI: 21.5 µM
HOP-62 NSCLC
  GI50: 1.83 µM
  TGI: 3.29 µM
NCI/ADR-RES ovarian
  GI50: 3.87 µM
  TGI: 13.9 µM
PC-3 prostate
  GI50: 2.19 µM
  TGI: 9.38 µM
LOX IMVI melanoma
  GI50: 1.55 µM
  TGI: 2.95 µM
HOP-92 NSCLC
  GI50: 1.43 µM
  TGI: 7.45 µM
HS 578T breast
  GI50: 1.76 µM
  TGI: 3.98 µM
EKVX NSCLC
  GI50: 3.55 µM
  TGI: 12.8 µM
HT29 colon
  GI50: 1.51 µM
  TGI: 3.1 µM
SNB-75 CNS
  GI50: 1.83 µM
  TGI: 4.26 µM
SN12C renal
  GI50: 4.7 µM
  TGI: 18 µM
M14 melanoma
  GI50: 1.74 µM
  TGI: 3.21 µM
K-562 leukemia
  GI50: 1.3 µM
  TGI: 3.02 µM
ACHN renal
  GI50: 2.28 µM
  TGI: 5.79 µM
HCC-2998 colon
  GI50: 1.7 µM
  TGI: 3.1 µM
A549 NSCLC
  GI50: 1.91 µM
  TGI: 3.56 µM
CAKI-1 renal
  GI50: 1.56 µM
  TGI: 3.03 µM
NCI-H460 lung
  GI50: 1.85 µM
  TGI: 3.42 µM
DU-145 prostate
  GI50: 1.72 µM
  TGI: 3.09 µM
NCI-H226 lung
  GI50: 12.6 µM
  TGI: 32.8 µM
UACC-257 melanoma
  GI50: 2 µM
  TGI: 3.81 µM
SK-MEL-2 melanoma
  GI50: 1.86 µM
  TGI: 3.49 µM
HCT-15 colon
  GI50: 1.58 µM
  TGI: 3.16 µM
SF-295 CNS
  GI50: 1.73 µM
  TGI: 3.36 µM
UO-31 renal
  GI50: 2.18 µM
  TGI: 6.85 µM
OVCAR-3 ovarian
  GI50: 4.52 µM
  TGI: 9 µM
HCT-116 colon
  GI50: 1.59 µM
  TGI: 2.99 µM
A498 renal
  GI50: 2.64 µM
  TGI: 16.8 µM
SK-MEL-5 melanoma
  GI50: 2.87 µM
  TGI: 8.4 µM
BT-549 breast
  GI50: 5.76 µM
  TGI: 19.6 µM
RPMI-8226 leukemia
  GI50: 2.02 µM
  TGI: 4.31 µM
T-47D breast
  GI50: 1.94 µM
  TGI: 4.34 µM
SK-OV-3 ovarian
  GI50: 9.97 µM
  TGI: 24.2 µM
UACC-62 melanoma
  GI50: 1.72 µM
  TGI: 3.42 µM
OVCAR-8 ovarian
  GI50: 2.29 µM
  TGI: 4.74 µM
KM12 colon
  GI50: 1.69 µM
  TGI: 3.06 µM
786-0 renal
  GI50: 1.73 µM
  TGI: 3.14 µM
OVCAR-5 ovarian
  GI50: 2.73 µM
  TGI: 7.98 µM
MCF7 breast
  GI50: 1.7 µM
  TGI: 3.19 µM
MDA-MB-435
  GI50: 1.73 µM
  TGI: 3.41 µM
OVCAR-4 ovarian
  GI50: 2.8 µM
  TGI: 8.59 µM
HL-60(TB) leukemia
  GI50: 1.74 µM
  TGI: 3.81 µM
COLO 205 colon
  GI50: 1.66 µM
  TGI: 3.11 µM
SF-268 CNS
  GI50: 1.46 µM
  TGI: 2.78 µM

## CCc1ccc(COC(=O)C2=C(C)NC(C)=C(C(=O)OCc3ccc(CC)cn3)C2C2=COCCO2)nc1
RXF 393 renal
  TGI: 37.3 µM
MOLT-4 leukemia
  TGI: 33.6 µM
U251 CNS
  TGI: 35.4 µM
TK-10 renal
  TGI: > 100 µM
SK-MEL-28 melanoma
  TGI: 35 µM
SW-620 colon
  TGI: 80.4 µM
MDA-MB-231 breast
  TGI: 45.8 µM
NCI-H23 lung
  TGI: 51 µM
NCI-H522 lung
  TGI: 40.7 µM
CCRF-CEM leukemia
  TGI: 49.8 µM
SF-539 CNS
  TGI: 27.7 µM
IGROV1 ovarian
  TGI: > 100 µM
SNB-19 CNS
  TGI: 54.5 µM
HOP-62 NSCLC
  TGI: 37.8 µM
NCI/ADR-RES ovarian
  TGI: 63.4 µM
PC-3 prostate
  TGI: 43.1 µM
LOX IMVI melanoma
  TGI: 29.1 µM
HOP-92 NSCLC
  TGI: 43 µM
HS 578T breast
  TGI: 37.7 µM
EKVX NSCLC
  TGI: 65.1 µM
HT29 colon
  TGI: 43.7 µM
SNB-75 CNS
  TGI: 39.3 µM
M14 melanoma
  TGI: 31.1 µM
K-562 leukemia
  TGI: 53.7 µM
ACHN renal
  TGI: 89.7 µM
HCC-2998 colon
  TGI: 37.7 µM
A549 NSCLC
  TGI: > 100 µM
CAKI-1 renal
  TGI: 88.5 µM
NCI-H460 lung
  TGI: 91.3 µM
DU-145 prostate
  TGI: > 100 µM
NCI-H226 lung
  TGI: 40 µM
UACC-257 melanoma
  TGI: 41.5 µM
HCT-15 colon
  TGI: 71.4 µM
SF-295 CNS
  TGI: 61.3 µM
UO-31 renal
  TGI: 60.4 µM
OVCAR-3 ovarian
  TGI: 54.7 µM
HCT-116 colon
  TGI: 31 µM
SK-MEL-5 melanoma
  TGI: 26.1 µM
BT-549 breast
  TGI: 31.1 µM
T-47D breast
  TGI: 36.1 µM
SR leukemia
  TGI: > 100 µM
SK-OV-3 ovarian
  TGI: 45.8 µM
UACC-62 melanoma
  TGI: 36.7 µM
OVCAR-8 ovarian
  TGI: > 100 µM
KM12 colon
  TGI: 87.1 µM
786-0 renal
  TGI: 69.4 µM
OVCAR-5 ovarian
  TGI: 69.3 µM
MCF7 breast
  TGI: 43 µM
MDA-MB-435
  TGI: 38.3 µM
OVCAR-4 ovarian
  TGI: 66.9 µM
HL-60(TB) leukemia
  TGI: 66.7 µM
COLO 205 colon
  TGI: 29.6 µM
SF-268 CNS
  TGI: > 100 µM

## OC(CN(CCCl)CCCl)C(O)C(O)C(O)CN(CCCl)CCCl (stereo unspecified)
RXF 393 renal
  TGI: > 100 µM
U251 CNS
  TGI: > 100 µM
TK-10 renal
  TGI: > 100 µM
SK-MEL-28 melanoma
  TGI: > 100 µM
SW-620 colon
  TGI: > 100 µM
MDA-MB-231 breast
  TGI: > 100 µM
NCI-H23 lung
  TGI: > 100 µM
NCI-H522 lung
  TGI: > 100 µM
MALME-3M melanoma
  TGI: > 100 µM
CCRF-CEM leukemia
  TGI: > 100 µM
SF-539 CNS
  TGI: > 100 µM
IGROV1 ovarian
  TGI: > 100 µM
SNB-19 CNS
  TGI: > 100 µM
HOP-62 NSCLC
  TGI: > 100 µM
NCI/ADR-RES ovarian
  TGI: > 100 µM
PC-3 prostate
  TGI: > 100 µM
LOX IMVI melanoma
  TGI: > 100 µM
HOP-92 NSCLC
  TGI: > 100 µM
HS 578T breast
  TGI: > 100 µM
EKVX NSCLC
  TGI: > 100 µM
HT29 colon
  TGI: > 100 µM
SN12C renal
  TGI: > 100 µM
M14 melanoma
  TGI: > 100 µM
K-562 leukemia
  TGI: > 100 µM
ACHN renal
  TGI: 17.3 µM
HCC-2998 colon
  TGI: > 100 µM
A549 NSCLC
  TGI: > 100 µM
CAKI-1 renal
  TGI: > 100 µM
NCI-H460 lung
  TGI: > 100 µM
DU-145 prostate
  TGI: > 100 µM
NCI-H226 lung
  TGI: > 100 µM
UACC-257 melanoma
  TGI: > 100 µM
SK-MEL-2 melanoma
  TGI: > 100 µM
HCT-15 colon
  TGI: > 100 µM
UO-31 renal
  TGI: > 100 µM
OVCAR-3 ovarian
  TGI: > 100 µM
HCT-116 colon
  TGI: > 100 µM
A498 renal
  TGI: > 100 µM
SK-MEL-5 melanoma
  TGI: > 100 µM
BT-549 breast
  TGI: > 100 µM
RPMI-8226 leukemia
  TGI: > 100 µM
T-47D breast
  TGI: > 100 µM
SR leukemia
  TGI: > 100 µM
SK-OV-3 ovarian
  TGI: > 100 µM
UACC-62 melanoma
  TGI: > 100 µM
OVCAR-8 ovarian
  TGI: > 100 µM
KM12 colon
  TGI: > 100 µM
786-0 renal
  TGI: > 100 µM
OVCAR-5 ovarian
  TGI: > 100 µM
MCF7 breast
  TGI: > 100 µM
MDA-MB-435
  TGI: > 100 µM
HL-60(TB) leukemia
  TGI: > 100 µM
COLO 205 colon
  TGI: > 100 µM
SF-268 CNS
  TGI: > 100 µM
